PMC3369921, “Ecto-5′-Nucleotidase: A Candidate Virulence Factor in Streptococcus sanguinis Experimental Endocarditis” (PLoS ONE, 2012)

Target: T1, ecto-5′-nucleotidase (Nt5e) (Streptococcus sanguinis, UniProt I3RY26)
T1 construct: native enzyme on whole cells of S. sanguinis strain 133-79
Assay: whole-cell AMPase activity (phosphate release) dose-inhibition and Michaelis-Menten analysis
Assay type: cell-based

T1 sequence (I3RY26 entry or part of it): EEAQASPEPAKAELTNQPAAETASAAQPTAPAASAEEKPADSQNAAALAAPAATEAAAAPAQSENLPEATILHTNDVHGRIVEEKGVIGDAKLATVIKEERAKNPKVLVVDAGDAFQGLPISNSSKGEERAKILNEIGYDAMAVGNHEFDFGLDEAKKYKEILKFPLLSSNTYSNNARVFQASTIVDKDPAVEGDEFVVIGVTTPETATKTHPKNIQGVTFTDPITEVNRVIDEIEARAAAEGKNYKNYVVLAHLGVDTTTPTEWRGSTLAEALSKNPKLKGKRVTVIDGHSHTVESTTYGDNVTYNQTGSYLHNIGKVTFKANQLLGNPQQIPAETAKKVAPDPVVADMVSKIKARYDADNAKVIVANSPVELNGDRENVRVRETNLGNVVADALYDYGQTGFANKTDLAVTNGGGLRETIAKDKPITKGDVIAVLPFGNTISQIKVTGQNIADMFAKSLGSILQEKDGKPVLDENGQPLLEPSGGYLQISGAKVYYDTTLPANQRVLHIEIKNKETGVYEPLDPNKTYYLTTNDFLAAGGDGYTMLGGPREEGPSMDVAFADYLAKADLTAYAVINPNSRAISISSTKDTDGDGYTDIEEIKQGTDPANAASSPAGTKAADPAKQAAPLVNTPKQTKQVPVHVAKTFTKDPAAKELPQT

Nc1ncnc2c1ncn2[C@@H]1O[C@H](COP(=O)(O)CP(=O)(O)O)[C@@H](O)[C@H]1O [APCP]
IC50: 8.8 ± 3.8 µM
